Results taken from patent publication US9636418B2 (priority 2013, dated 2017).
Where “and” joins values, the source holds several entries; their conditions need not be identical. Equal values may be shown once. Entries after “also recorded” stand apart in the source; their conditions may differ. Read-outs that look alike come from different tables or passages of the source.

What was measured:
[1] = in vivo; cited from earlier work
[2] = system: mice; conditions: mouse, in vivo; cited from earlier work
[3] = target: T1, hNav1.4 (Homo sapiens, UniProt P35499); test: cell-based; conditions: PatchXpress; * = at high concentrations compound would wash off slowly or not at all; read-out: PX hNav1.4 Tonic IC50
[4] = target: T2, hNav1.3 (Homo sapiens, UniProt Q9NY46); test: cell-based; conditions: IonWorks Quattro; read-out: IC50 Nav1.3
[5] = in vitro; conditions: rat, plasma
[6] = target: T3, hNav1.5 (Homo sapiens, UniProt Q14524); test: cell-based; conditions: PatchXpress; * = at high concentrations compound would wash off slowly or not at all; read-out: PX hNav1.5 Tonic IC50
[7] = target: T4, hNav1.7 (Homo sapiens, UniProt Q15858); test: cell-based; format: cell-based
[8] = system: TTX-sensitive Nav channels in mouse DRG neuron; format: cell-based
[9] = target: T3, hNav1.5; test: cell-based; conditions: IonWorks Quattro; read-out: IC50 Nav1.5
[10] = rat plasma, 37° C., incubation time 0 hr (normalisation point)
[11] = target: T4, hNav1.7; test: cell-based; conditions: IonWorks Quattro; read-out: IC50 Nav1.7
[12] = target: T4, hNav1.7; test: cell-based; format: cell-based; conditions: PatchXpress; * = at high concentrations compound would wash off slowly or not at all; read-out: PX hNav1.7 Tonic IC50
[13] = in vitro; conditions: mouse, plasma
[14] = mouse plasma, 37° C., incubation time 0 hr (normalisation point)
[15] = target: T1, hNav1.4; test: cell-based; conditions: for IC50: IonWorks Quattro, read-out: IC50 Nav1.4
[16] = system: central neuronal sodium channels in rat hippocampus neurons; conditions: cited from earlier work
[17] = target: T1, hNav1.4; format: cell-based
[18] = target: T3, hNav1.5; test: cell-based; format: cell-based
[19] = target: T2, hNav1.3; format: cell-based
[20] = system: TTX-resistant Nav channels in mouse DRG neuron; format: cell-based
[21] = target: hNav1.8 (Homo sapiens, UniProt Q9Y5Y9); test: cell-based; format: cell-based

T2 sequence (Q9NY46 whole entry): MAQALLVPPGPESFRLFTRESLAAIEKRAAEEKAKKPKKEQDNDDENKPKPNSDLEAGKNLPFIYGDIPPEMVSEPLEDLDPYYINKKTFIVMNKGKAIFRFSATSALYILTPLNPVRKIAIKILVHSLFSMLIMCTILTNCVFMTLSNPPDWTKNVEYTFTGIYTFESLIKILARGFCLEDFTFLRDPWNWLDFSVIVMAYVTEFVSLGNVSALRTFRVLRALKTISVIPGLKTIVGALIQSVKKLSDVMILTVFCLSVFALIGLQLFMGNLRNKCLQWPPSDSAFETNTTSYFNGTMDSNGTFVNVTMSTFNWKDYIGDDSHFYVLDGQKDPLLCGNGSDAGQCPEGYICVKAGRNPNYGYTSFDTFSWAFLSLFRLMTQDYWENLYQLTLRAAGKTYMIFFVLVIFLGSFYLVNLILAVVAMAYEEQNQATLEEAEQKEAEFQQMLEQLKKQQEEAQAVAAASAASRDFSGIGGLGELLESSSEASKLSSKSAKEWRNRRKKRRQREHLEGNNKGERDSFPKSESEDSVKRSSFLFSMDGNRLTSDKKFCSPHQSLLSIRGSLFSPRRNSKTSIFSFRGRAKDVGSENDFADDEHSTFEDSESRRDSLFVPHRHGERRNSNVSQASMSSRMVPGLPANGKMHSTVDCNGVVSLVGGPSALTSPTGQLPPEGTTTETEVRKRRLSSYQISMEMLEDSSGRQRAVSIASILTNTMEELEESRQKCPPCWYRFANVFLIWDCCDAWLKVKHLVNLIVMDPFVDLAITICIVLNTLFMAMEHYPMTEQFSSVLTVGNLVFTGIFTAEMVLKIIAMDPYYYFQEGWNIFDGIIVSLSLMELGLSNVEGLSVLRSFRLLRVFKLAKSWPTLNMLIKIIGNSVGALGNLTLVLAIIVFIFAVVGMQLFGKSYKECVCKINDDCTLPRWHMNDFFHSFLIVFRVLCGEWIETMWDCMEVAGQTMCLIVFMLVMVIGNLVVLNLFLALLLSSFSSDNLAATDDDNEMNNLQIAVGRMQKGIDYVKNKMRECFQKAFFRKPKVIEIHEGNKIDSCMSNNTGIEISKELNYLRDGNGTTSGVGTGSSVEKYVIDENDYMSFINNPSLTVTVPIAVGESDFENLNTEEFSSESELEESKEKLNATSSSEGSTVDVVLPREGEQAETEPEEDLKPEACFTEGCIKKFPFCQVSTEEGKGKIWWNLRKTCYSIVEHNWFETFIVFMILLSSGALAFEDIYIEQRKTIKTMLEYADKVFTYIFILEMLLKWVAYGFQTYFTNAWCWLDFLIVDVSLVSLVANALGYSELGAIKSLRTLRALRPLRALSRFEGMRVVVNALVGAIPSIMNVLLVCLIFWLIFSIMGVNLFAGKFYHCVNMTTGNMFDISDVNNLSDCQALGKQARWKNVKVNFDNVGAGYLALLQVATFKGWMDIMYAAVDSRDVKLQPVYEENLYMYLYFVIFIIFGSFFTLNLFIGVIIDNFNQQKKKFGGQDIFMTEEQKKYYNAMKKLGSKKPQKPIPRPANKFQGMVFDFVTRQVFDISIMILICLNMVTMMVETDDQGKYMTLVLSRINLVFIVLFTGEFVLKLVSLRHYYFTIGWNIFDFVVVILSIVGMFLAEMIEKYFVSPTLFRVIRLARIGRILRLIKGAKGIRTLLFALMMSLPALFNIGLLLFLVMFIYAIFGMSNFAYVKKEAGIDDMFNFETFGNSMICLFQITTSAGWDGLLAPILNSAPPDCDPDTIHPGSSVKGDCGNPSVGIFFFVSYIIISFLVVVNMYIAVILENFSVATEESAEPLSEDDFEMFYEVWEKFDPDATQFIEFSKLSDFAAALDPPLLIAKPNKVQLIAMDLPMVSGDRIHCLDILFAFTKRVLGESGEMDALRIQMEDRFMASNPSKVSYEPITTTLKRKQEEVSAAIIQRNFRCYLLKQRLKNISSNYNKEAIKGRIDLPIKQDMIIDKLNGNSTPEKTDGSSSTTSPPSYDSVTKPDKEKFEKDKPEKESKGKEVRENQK
T3 sequence (Q14524 whole entry): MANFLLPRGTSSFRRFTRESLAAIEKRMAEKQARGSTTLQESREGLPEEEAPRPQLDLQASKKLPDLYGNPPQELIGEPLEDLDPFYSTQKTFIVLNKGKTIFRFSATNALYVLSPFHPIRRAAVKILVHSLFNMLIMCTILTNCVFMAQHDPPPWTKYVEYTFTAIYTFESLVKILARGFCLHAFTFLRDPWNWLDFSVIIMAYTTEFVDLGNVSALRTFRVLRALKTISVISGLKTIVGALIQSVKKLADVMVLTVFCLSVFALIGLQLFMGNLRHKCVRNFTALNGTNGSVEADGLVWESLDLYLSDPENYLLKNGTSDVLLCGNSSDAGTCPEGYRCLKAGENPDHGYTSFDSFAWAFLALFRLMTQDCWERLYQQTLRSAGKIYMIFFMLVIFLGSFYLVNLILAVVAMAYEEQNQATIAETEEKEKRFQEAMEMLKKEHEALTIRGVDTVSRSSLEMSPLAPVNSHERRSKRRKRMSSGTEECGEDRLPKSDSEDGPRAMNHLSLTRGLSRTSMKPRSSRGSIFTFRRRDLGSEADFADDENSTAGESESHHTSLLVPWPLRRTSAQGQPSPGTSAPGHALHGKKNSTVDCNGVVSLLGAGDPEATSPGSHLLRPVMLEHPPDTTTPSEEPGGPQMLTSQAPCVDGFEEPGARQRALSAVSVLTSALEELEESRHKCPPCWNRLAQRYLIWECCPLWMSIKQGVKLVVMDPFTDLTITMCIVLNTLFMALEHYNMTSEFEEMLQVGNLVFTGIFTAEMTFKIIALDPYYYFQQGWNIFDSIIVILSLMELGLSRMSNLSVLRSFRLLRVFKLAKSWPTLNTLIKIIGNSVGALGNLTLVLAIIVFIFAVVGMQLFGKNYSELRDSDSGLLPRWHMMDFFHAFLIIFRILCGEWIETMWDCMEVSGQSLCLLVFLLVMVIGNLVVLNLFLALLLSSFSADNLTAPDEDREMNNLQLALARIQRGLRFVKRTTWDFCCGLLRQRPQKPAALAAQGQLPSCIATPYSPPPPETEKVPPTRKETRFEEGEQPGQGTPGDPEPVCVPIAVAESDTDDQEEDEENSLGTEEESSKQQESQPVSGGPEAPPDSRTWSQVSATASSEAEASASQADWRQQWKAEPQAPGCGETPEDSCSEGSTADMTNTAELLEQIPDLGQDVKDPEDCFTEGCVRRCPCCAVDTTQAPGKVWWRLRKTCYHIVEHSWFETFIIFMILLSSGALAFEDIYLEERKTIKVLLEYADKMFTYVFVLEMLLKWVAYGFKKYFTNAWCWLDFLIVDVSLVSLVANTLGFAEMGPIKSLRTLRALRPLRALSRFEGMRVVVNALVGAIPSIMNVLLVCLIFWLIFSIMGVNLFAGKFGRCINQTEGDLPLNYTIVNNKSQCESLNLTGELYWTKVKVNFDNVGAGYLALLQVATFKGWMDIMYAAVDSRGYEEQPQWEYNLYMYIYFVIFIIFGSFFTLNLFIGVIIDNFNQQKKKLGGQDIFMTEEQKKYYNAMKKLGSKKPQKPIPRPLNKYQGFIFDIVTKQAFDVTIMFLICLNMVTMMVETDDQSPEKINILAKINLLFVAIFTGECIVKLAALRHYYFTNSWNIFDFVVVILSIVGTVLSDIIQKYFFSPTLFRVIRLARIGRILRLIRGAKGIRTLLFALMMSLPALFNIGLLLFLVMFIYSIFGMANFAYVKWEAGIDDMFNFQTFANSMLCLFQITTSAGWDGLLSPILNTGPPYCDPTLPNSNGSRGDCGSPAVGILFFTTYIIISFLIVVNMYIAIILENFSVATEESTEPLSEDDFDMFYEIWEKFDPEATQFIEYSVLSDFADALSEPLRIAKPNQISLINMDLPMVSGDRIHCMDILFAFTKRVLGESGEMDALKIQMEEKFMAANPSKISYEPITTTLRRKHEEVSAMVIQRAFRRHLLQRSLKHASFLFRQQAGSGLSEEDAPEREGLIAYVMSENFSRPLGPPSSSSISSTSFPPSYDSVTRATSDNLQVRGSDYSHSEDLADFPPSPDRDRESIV

Compound | IC50 [3] | IC50 [4] | remaining at 2 h [5] | remaining at 4 h [5] | remaining at 6 h [5] | remaining at 8 h [5] | remaining at 24 h [5] | IC50 [6] | IC50 [9] | % Peptide Remaining [10] | IC50 [11] | IC50 [12] | remaining at 2 h [13] | remaining at 4 h [13] | remaining at 6 h [13] | remaining at 8 h [13] | remaining at 24 h [13] | % Peptide Remaining [14] | IC50 [15] | other results
YCQKWMWTCDSERKCCEGMVCRLWCKKKLW [SEQ ID NO: 531, ProTx-II] |  |  |  |  |  |  |  |  |  |  |  |  |  |  |  |  |  |  |  | efficacy in mechanical hyperalgesia study [1]: not efficacious
μ-Conotoxin KIIIA [SEQ ID NO: 530] |  |  |  |  |  |  |  |  |  |  |  |  |  |  |  |  |  |  |  | motor impairment [2]: some motor impairment but not paralytic activity
CC[C@H](C)[C@H](NC(=O)[C@H](CCCCN)NC(=O)[C@H](CCCNC(=N)N)NC(=O)[C@@H]1CSSC[C@@H]2NC(=O)[C@H](C)NC(=O)[C@H](CCCNC(=N)N)NC(=O)[C@H](CCCCN)NC(=O)[C@H](CO)NC(=O)[C@H](CC(=O)O)NC(=O)[C@@H]3CSSC[C@H](NC(=O)[C@H](CCC(=O)O)NC(=O)[C@H](CC(C)C)NC(=O)CNC(=O)[C@H](CCC(=O)O)NC(=O)[C@H](CSSC[C@H](NC(=O)[C@@H](N)Cc4ccc(O)cc4)C(=O)N[C@@H](CCC(N)=O)C(=O)N[C@@H](CCCCN)C(=O)N[C@@H](Cc4c[nH]c5ccccc45)C(=O)N[C@@H](CCSC)C(=O)N[C@@H](Cc4c[nH]c5ccccc45)C(=O)N[C@@H]([C@@H](C)O)C(=O)N3)NC2=O)C(=O)N[C@@H](CCCCN)C(=O)N[C@@H](CC(C)C)C(=O)N[C@@H](Cc2c[nH]c3ccccc23)C(=O)N1)C(=O)N[C@@H](Cc1c[nH]c2ccccc12)C(N)=O [compound 112] | 1130 nM and 824 nM and 1050 nM and 1350 nM and 2370 nM | 3620 nM | 95% | 93% | 92% | 89% | 70% | 3420 nM and 3950 nM and 4410 nM and 1320 nM and 1620 nM | 6900 nM | 100% | 30 nM and 17 nM | 2.8 nM and 0.67 nM and 1.3 nM and 0.5 nM and 1.41 nM and 2.15 nM and 1.82 nM and 2.12 nM | 88% | 82% | 85% | 85% | 77% | 100% | > 5000 nM | IC50 ([7]; WCPC, hNav1.7, partially inactivated, n=2): 0.23 nM; 1.x/1.7, partially inactivated ([7]; hNav1.7 vs hNav1.7, partially inactivated): 1; 1.x/1.7, partially inactivated [8]: 1213; 1.x/1.7, partially inactivated ([8]; mTTX-S (fresh DRG) vs hNav1.7, partially inactivated): 917
Huwentoxin-IV [SEQ ID NO: 528] |  |  |  |  |  |  |  |  |  |  |  |  |  |  |  |  |  |  |  | less potent against central neuronal sodium channels [16]: 12 fold
CC[C@H](C)[C@H](NC(=O)[C@H](CO)NC(=O)[C@H](CCCCN)NC(=O)[C@H](CCCNC(=N)N)NC(=O)[C@@H]1CSSC[C@@H]2NC(=O)[C@H](C)NC(=O)[C@H](CCCNC(=N)N)NC(=O)[C@H](CCCCN)NC(=O)[C@H](CO)NC(=O)[C@H](CC(=O)O)NC(=O)[C@@H]3CSSC[C@H](NC(=O)[C@H](CCC(=O)O)NC(=O)[C@H](CC(C)C)NC(=O)CNC(=O)[C@H](CCC(=O)O)NC(=O)[C@H](CSSC[C@H](NC(=O)[C@@H](N)Cc4ccc(O)cc4)C(=O)N[C@@H](CCC(N)=O)C(=O)N[C@@H](CCCCN)C(=O)N[C@@H](Cc4c[nH]c5ccccc45)C(=O)N[C@@H](CCSC)C(=O)N[C@@H](Cc4c[nH]c5ccccc45)C(=O)N[C@@H]([C@@H](C)O)C(=O)N3)NC2=O)C(=O)N[C@@H](CCCCN)C(=O)N[C@@H](CC(C)C)C(=O)N[C@@H](Cc2c[nH]c3ccccc23)C(=O)N1)C(N)=O [compound 138] | 4790 nM and 3580 nM and 2970 nM | > 5000 nM | 90% | 81% | 71% | 67% | 59% | > 10000 nM and 14600 nM | 13900 nM and 9200 nM | 100% | 80 nM and 150 nM | 3.3 nM and 2 nM and 0.4 nM | 64% | 61% | 55% | 51% | 50% | 100% | > 5000 nM | Nav1.4/Nav1.7 ([15]; ratio of IonWorks Quattro IC50 values): 62 and 34
CC[C@H](C)[C@H](NC(=O)[C@@H](NC(=O)[C@H](CCCCN)NC(=O)[C@H](CCCNC(=N)N)NC(=O)[C@@H]1CSSC[C@@H]2NC(=O)[C@H](C)NC(=O)[C@H](CCCNC(=N)N)NC(=O)[C@H](CCCCN)NC(=O)[C@H](CO)NC(=O)[C@H](CC(=O)O)NC(=O)[C@@H]3CSSC[C@H](NC(=O)[C@H](CCCNC(=N)N)NC(=O)[C@H](CC(C)C)NC(=O)CNC(=O)[C@H](CCC(=O)O)NC(=O)[C@H](CSSC[C@H](NC(=O)[C@@H](N)Cc4ccc(O)cc4)C(=O)N[C@@H](CCC(N)=O)C(=O)N[C@@H](CCCCN)C(=O)N[C@@H](Cc4c[nH]c5ccccc45)C(=O)N[C@@H](CCSC)C(=O)N[C@@H](Cc4c[nH]c5ccccc45)C(=O)N[C@@H]([C@@H](C)O)C(=O)N3)NC2=O)C(=O)N[C@@H](CCCCN)C(=O)N[C@@H](CC(C)C)C(=O)N[C@@H](Cc2c[nH]c3ccccc23)C(=O)N1)[C@@H](C)CC)C(N)=O [SEQ ID NO: 2, JzTx-V(1-29), reference compound] |  |  |  |  |  |  |  |  |  |  |  |  |  |  |  |  |  |  |  | block of hNav1.7 current [7]: blocked all Nav1.7 current; inhibition of hNav1.7 current [7]: complete inhibition; block of TTX-sensitive Nav current [8]: completely blocked TTX-sensitive Nav current; also recorded: blocked nearly all TTX-sensitive Nav current; also recorded: almost complete inhibition; block of hNav1.4 current [17]: completely blocked Nav1.4 current; also recorded: complete inhibition; block of hNav1.5 current [18]: blocked most Nav1.5 current; also recorded: nearly complete inhibition; block of hNav1.3 current [19]: completely blocked Nav1.3 current; also recorded: complete inhibition; effect on TTX-resistant Nav current [20]: nominal effect on peak TTX-resistant current but prolonged the level of TTX-resistant current at 40 msec; also recorded: only partial inhibition; inhibition of hNav1.8 current [21]: only partial inhibition
